From patent publication US20180020669A1, “Methods for the Inhibition and Dispersal of Biofilms” (priority 2015, published 2018)

What was measured:
S. aureus NCTC 8325 = format: cell-based, Staphylococcus aureus
Protocol: The effect of auranofin on the growth of S. aureus was also assessed using a time kill assay. Exponentially growing S. aureus NCTC 8325 were diluted to approximately 5×10^6 cfu/mL in tryptic soy broth (TSB) and auranofin, rifampicin or both auranofin and rifampicin were added. Auranofin was added to cultures at a concentration of 5 μg/mL; 1 μg/mL or 0.5 μg/mL. Rifampicin was added to cultures at a concentration of 1 μg/mL or 0.2 pig/mL, while cultures with auranofin and rifampicin had 0.5 μg/mL auranofin and 0.2 μg/mL rifampicin. Cultures were sampled at various time points and colony forming units determined.

[1] = system: S. aureus (strain SH1000-GFP) in THP-1 cells; test: S. aureus infection of THP-1 cells (fluorescence microscopy); format: cell-based, Staphylococcus aureus; conditions: 1 μg/ml in 0.5% DMSO, moi 3, over 24 h
Protocol: THP-1, a human monocytic cell line was infected with S. aureus (strain SH1000-GFP) at a multiplicity of infection of 3 for 1.5. hours. Cells were washed 3 times and auranofin (1 μg/ml in 0.5% DMSO) or 0.5% DMSO was added. Cells were observed under a fluorescent microscope at various time points post infection (FIG. 3).

[2] = system: preformed S. aureus NCTC 8325 biofilms; test: Preformed biofilm assay (crystal violet); format: cell-based, Staphylococcus aureus
Protocol: The effect of auranofin, alone and in combination with antibiotics, on preformed S. aureus biofilms was assessed. Briefly S. aureus NCTC 8325 was plated in 96-well plates as described in Example 2 and incubated 37° C. for 24 hours. Biofilms were then washed 3 times with TSB and 150 μL of fresh TSB and 3 μL of auranofin at the appropriate dilution in DMSO was added to the wells in duplicate. Plates were again sealed with AeraSeal™ and reincubated 37° C. for 24 hours. Biofilm was then detected as described in above.

[3] = system: S. aureus NCTC 8325 and clinical isolates; test: Disc assay for resistance development; format: cell-based, Staphylococcus aureus; conditions: 4 μg disc, TSB agar, overnight
Protocol: Bacteria were plated on TSB agar. 3M discs (impregnated with 4 μg auranofin, 4 μg rifampicin or DMSO alone) were placed on top of the agar. The plates were incubated overnight at 37° C. and any zone of bacterial inhibition was measured. Any bacterial colonies growing within this zone of inhibition were picked and subsequently analysed for potential resistance against the appropriate compound/antibiotic using a growth or biofilm formation assay as described above. […] These S. aureus Rif mutants were tested in a growth assay and their rifampicin resistance confirmed.

S. aureus = test: Resistance frequency assay; format: cell-based, Staphylococcus aureus; conditions: CaMHB broth with serial dilutions of the compound
Protocol: Briefly, S. aureus was streaked out on TSB agar plates containing 1×, 1.5×, 2× and 4× the minimum inhibitory concentration of auranofin (1 μg/mL). Any potential mutants were picked and assessed for resistance. The potentially resistant bacteria were cultured overnight in CaMHB broth containing serial dilutions of auranofin, rifampicin or lincomycin and assessed for their resistance profile by measuring the growth of the bacteria in a growth assay and comparing it to the control. “Wild-type” bacteria that had not originally been grown in the agar plates and which were not resistant were also included in the growth assay. “Rif resistant cells” were picked from the rifampicin zone of inhibition and potential “Au resistant” mutants were picked from the edge of the auranofin zone of inhibition and tested.

[4] = system: rifampicin-resistant S. aureus mutants; format: cell-based, Staphylococcus aureus; conditions: discs with 4 μg (4 μg each), TSB agar, overnight, data not shown
[5] = system: multi-drug resistant clinical isolates of K. pneumoniae; format: cell-based, Klebsiella pneumoniae; conditions: 100 μg disc; C204742, C68761, C188681, C71173
Protocol: The ability of auranofin to inhibit the growth of four multi-drug resistant clinical isolates of K. pneumoniae was assessed. The clinical isolates were C204742 (resistant to ampicillin and gentamicin), C68761 (resistant to ampicillin, trimethoprim and sulfamethoxazole), C188681 (resistant to ampicillin, trimethoprim, sulfamethoxazole, ceftazidime, tobramycin and ciprofloxacin) and C71173 (resistant to ampicillin, trimethoprim, sulfamethoxazole, ceftazidime, tobramycin, gentamicin and ciprofloxacin). These strains have been previously described in Chowdhury et al., (2011) Antimicrob Agents Chemother 55: 3140-3149.
Bacterial colonies were picked and diluted 1/1000 in Luria broth (LB). 100 μL of each dilution was then streaked out on LB plates. Discs impregnated with 100 μg auranofin or 100 μg gentimicin or auranofin and gentamicin (100 μg each) were placed on top of the agar. The plates were incubated overnight at 37° C. and any zone of bacterial inhibition was noted.

[6] = system: E. coli K12 single-knockout mutants; test: Growth assay of Keio library redox mutants; format: cell-based
Protocol: To determine whether auranofin acts on the antioxidant pathway mutants from the Keio library, containing single-knockout mutants for all non-essential genes of E. coli K12 were tested in a growth assay.
Auranofin stock solution (20 mg/ml) in dimethyl sulfoxide (DMSO) was serially diluted in DMSO and each dilution added in duplicate to a 96-well plate to a final DMSO concentration of 2% (v/v). An overnight culture of E. coli mutants and wild type were diluted 1:100 in Luria Bertani (LB) broth and 150 μl of this sample was added to each well of the 96-well plates. Control wells included an ‘untreated’ control with bacteria in the presence of 2% DMSO and a negative sample (containing […] growth media in the presence of 2% DMSO). Plates were incubated at […] for 22-24 h and bacterial growth assessed by absorbance at a wavelength of 595 nm. The minimum inhibitory concentration (MIC) was defined as the lowest concentration of compound that inhibited growth compared to the no-treatment control.

biofilm formation = test: Inhibition of biofilm formation (general description); format: cell-based; conditions: organism not stated
existing biofilms = test: Action against existing biofilms (general description); format: cell-based; conditions: for concentration for action against existing biofilms (not observed even at): organism not stated
[7] = system: A. baumannii (D2, A94 and ATCC 17978); test: Growth assay in LB, absorbance 595 nm; format: cell-based, Acinetobacter baumannii
Protocol: In the first growth assay, three strains of A. baumannii (D2, A94 and ATCC 17978) were cultured in LB in the presence of 1.25, 2.5, 5, 10, 20 or 40 μg/mL auranofin or 1.56, 3.13, 6.25, 12.5, 25, 50, 100 or 200 μg/mL gentamicin for 22-24 hours. Bacterial strains were also grown in the absence of antibiotic, and these were used as controls. The bacterial growth was determined by the measurement of absorbance at 595 nm using a Synergy HT Bio-Tek plate reader. The growth of A. baumannii was then assessed as a percentage of the positive control (bacteria alone grown in the presence of 2% DMSO).
A second growth assay was then performed to determine the effect of a combination of auranofin and gentamicin on bacterial growth. Briefly, A. baumannii was cultured in LB medium for 22-24 hours in the presence of […], 2.5, 5, 10, 20 or 40 μg/ml auranofin and 0, 30, 100, 300 or 1000 μg/ml gentamicin before growth was determined by the measurement of absorbance at 595 nm using a Synergy HT Bio-Tek plate reader. The growth of A. baumannii was then assessed as a percentage of the positive control (bacteria alone grown in the presence of 2% DMSO).

[8] = system: A. baumannii D2 biofilm formation; test: Biofilm prevention assay (crystal violet); format: cell-based, Acinetobacter baumannii; conditions: A. baumannii D2, 24 hours
Protocol: The effect of auranofin on the formation of A. baumannii D2 biofilm formation was assessed using the biofilm prevention assay described above in Example 2 with slight modifications. Briefly, A. baumannii D2 were grown overnight in LB media and diluted 1/100 before 150 μL was added to the wells of a flat bottomed 96-well plate. Three microliters of auranofin or gentamicin at the appropriate dilution in DMSO was added to the wells in duplicate. Controls included a positive control with bacteria alone with media and 2% DMSO and a negative (no bacteria) control with media containing 2% DMSO. Plates were sealed with AeraSeal™ and incubated at 37° C. for 24 hours. The plates were then washed three times with PBS, dried at 60° C. for 1 hour and stained with crystal violet for 1 hour. The plates were again washed three times with water, dried and scanned prior to the addition of 33% acetic acid to re-solubilize the crystal violet stain bound to the adherent cells. Absorbance was then measured at 595 nm and expressed as a percentage of the bacteria only control.

With `CC[P](CC)(CC)=[Au][S][C@@H]1O[C@H](COC(C)=O)[C@@H](OC(C)=O)[C@H](OC(C)=O)[C@H]1OC(C)=O` [auranofin, 2,3,4,6-tetra-o-acetyl-1-thio-J-D-glucopyranosato-S-(triethylphosphine) gold] the “development of resistant bacteria over time” value (S. aureus NCTC 8325; 0.5, 1 or 5 μg/mL auranofin, or 0.5 μg/mL auranofin with 0.2 μg/mL rifampicin) was “no resistant bacteria were observed”, the “growth inhibitory effect in time kill assay” value (S. aureus NCTC 8325; auranofin 0.5, 1 or 5 μg/mL, TSB) was “concentration- and time-dependent” and the “intracellular and extracellular S. aureus growth in infected THP-1 cells” value [1] was “inhibited intracellular and extracellular S. aureus growth”. The “effect on the biofilm, compound alone” value ([2]; 5 μg/mL auranofin alone or 1.5 μg/mL rifampicin alone) was “only a partial effect”, the “effect on existing S. aureus biofilm” value ([2]; 20 μg/mL and 40 μg/mL auranofin) was “essentially eliminating the biofilm” and the “effect on existing S. aureus biofilms (crystal violet staining)” value ([2]; 24 hours treatment, FIG. 5) was “dose-dependent inhibitory effect”. The “bacterial colonies growing within the zone of inhibition (resistance)” value [3] was “No growth was observed”, the zone of inhibition ([3]; NCTC 8325 and clinical isolates incl. MRSA) was “produced zones of inhibition” and the “resistance of potential mutants picked from agar plates, growth assay” value (S. aureus) was “none of the potentially auranofin-resistant bacteria picked from agar plates were actually resistant”. For the same molecule, the “zone of inhibition on rifampicin-resistant mutants” value [4] was “Zones of inhibition formed”, the “growth inhibition, disc assay” value [5] was “shows inhibitory activity against all four multi-drug resistant clinical isolates tested” and the “effect of depletion on sensitivity to auranofin” value ([6]; depletion of gor) was “little effect”. For the same molecule, the “sensitivity to auranofin compared to the wild-type strain” value ([6]; mutant lacking gsha) was “more sensitive” and the “sensitivity to auranofin compared to the wild-type strain” value ([6]; mutant lacking gshb) was “more sensitive”.
In the case of `CC[C@H]1OC(=O)[C@H](C)[C@@H](O[C@H]2C[C@@](C)(OC)[C@@H](O)[C@H](C)O2)[C@H](C)[C@@H](O[C@@H]2O[C@H](C)C[C@H](N(C)C)[C@H]2O)[C@](C)(O)C[C@@H](C)C(=O)[C@H](C)[C@@H](O)[C@]1(C)O` [erythromycin], the “concentration at which inhibition of biofilm formation is observed” value (biofilm formation) is reported as 0.1 to 0.3 µg/mL and the “concentration for action against existing biofilms (not observed even at)” value (existing biofilms) is reported as greater than 3 µg/mL.
`CC(=O)NC[C@H]1CN(c2ccc(N3CCOCC3)c(F)c2)C(=O)O1` [linezolid] was tested, and the “concentration at which inhibition of biofilm formation is observed” value (biofilm formation) was roughly 6 µg/mL, the “shift between inhibition of biofilm formation and action against existing biofilms” value (existing biofilms; at least) was no less than 15 fold and the “concentration for action against existing biofilms (not observed even at)” value (existing biofilms) was greater than 100 µg/mL.
In the case of `CO[C@H]1/C=C/O[C@@]2(C)Oc3c(C)c(O)c4c(O)c(c(/C=N/N5CCN(C)CC5)c(O)c4c3C2=O)NC(=O)/C(C)=C\C=C\[C@H](C)[C@H](O)[C@@H](C)[C@@H](O)[C@@H](C)[C@H](OC(C)=O)[C@@H]1C` [rifampicin], the “time after which bacterial growth starts to increase (development of resistance)” value (S. aureus NCTC 8325; 0.2 μg/mL and 1 μg/mL rifampicin) is reported as “about 10 hours”.
For gentamicin, the “effect on biofilm mass, antibiotic alone” value ([2]; 0.9 or 3 μg/mL rifampicin, 25 or 75 μg/mL gentamicin) was “no effect on biofilm mass”, the “susceptibility in growth assay” value ([7]; A. baumannii A94) was “partially resistant” and the “susceptibility in growth assay” value ([7]; A. baumannii ATCC 17978) was “susceptible”. For the same molecule, the “susceptibility in growth assay” value ([7]; A. baumannii D2) was “completely resistant” and the “concentration that completely prevented biofilm formation” value [8] was greater than 20 µg/mL.
